Patent publication US20210388213A1, “PROCESS FOR PRODUCING AQUEOUS COATING COMPOSITIONS” (CELANESE INTERNATIONAL CORPORATION, priority 2018, published 2021)

System: mixture of bacteria, yeasts and fungi/moulds (inoculum)
Assay: Challenge test of preserved polymer dispersions with mixed inoculum (repeated up to six cycles)
Assay type: cell-based
Details: at concentrations of <15 ppm in products such as aqueous coating compositions
Procedure: 100 g of the dispersions listed above are weighed into sterile sample bottles. To each sample 1% by weight of an inoculum is added and incubated at 30° C. for 7 days. As inoculum, a suspension in water which contains the following concentrations is used: Bacteria: 8.0×10^8−2.0×10^9 cfu/cm^3 Yeasts/moulds: 8.0×10^6−2.0×10^7 cfu/cm^3 A mixture of the following bacteria, yeasts and fungi/moulds are used for the preparation of the inoculum: Bacteria mixture of: Aeromonas hydrophila (sorbia, BAM 485) Alcaligenes faecalis (BAM 486) Providencia rettgeri (BAM 488) Pseudomonas aeruginosa (BAM 489) Pseudomonas sp (BAM 490) Escherichia coli (DSM 13631) Staphylococcus aureus (DSM 346) Micrococcus Luteus (DSM 20030) Yeast mixture of: Rhodotorula rubra (DSM 13621) Saccharomyces cerevisiae (DSM 13622) Issatchenkia orientalis (DSM 6128) Filamentous Fungy mixture of: Aspergillus terréus (DSM 13630) Geotrichum candidum (DSM 13629) Fusarium Solani (DSM 13635) After 7 days the microbial contamination remaining in the samples is determined by streaking the samples out onto Trypticase Sel Agar (TSA) and on Malt Extra Agar (MEA) as nutrient media and incubated at 30° C. for 7 days. The level of growing is measured by using a rating of 0 for no growth up to a rating of 3 for full growth. The test is passed in case no growth is observed which means a rating of 0 on TSA and MEA nutrient media. […]

Structure (SMILES): Cn1sc(Cl)cc1=O [CIT, 5-chloro-2-methyl-4-isothiazolin-3-one]
- protection against microbial attack: not sufficient
